{"source": "patent US8735414B2", "about": "(priority 2009, dated 2014)", "note": "pIC50: −log10 of the molar value."}
{"tested_on": "bicistronic HCV replicon (replicon RNA, GenBank Accession No. AJ242654)", "experiment": "HCV Replicon Assay", "assay_type": "cell-based", "conditions": "Hepatitis C virus, 72 h, read-out: Replicon IC50"}
{"smiles": "CC(C)NS(=O)(=O)c1ccc(-c2c(C#N)c3ccc(OC(F)(F)F)cc3n2C2CCCC2)nc1", "note": "[compound 17, 6-[3-cyano-1-cyclopentyl-6-(trifluoromethoxy)-1H-indol-2-yl]-N-(propan-2-yl)pyridine-3-sulfonamide]", "pIC50": "5.70 to 6.30"}
{"smiles": "CC(C)NS(=O)(=O)c1ccc(-c2c(C#N)c3ccc(OC(F)(F)F)cc3n2C2CCC2)cn1", "note": "[compound 26, 5-[3-cyano-1-cyclobutyl-6-(trifluoromethoxy)-1H-indol-2-yl]-N-(propan-2-yl)pyridine-2-sulfonamide]", "pIC50": "5.70 to 6.30"}
{"smiles": "CC(C)NS(=O)(=O)c1ccc(-c2c(C#N)c3ccc(C4CC4)cc3n2C2CCC2)cn1", "note": "[compound 27, 5-(3-cyano-1-cyclobutyl-6-cyclopropyl-1H-indol-2-yl)-N-(propan-2-yl)pyridine-2-sulfonamide]", "pIC50": "> 6.30"}
{"smiles": "CC(C)NS(=O)(=O)c1ccc(-c2c(C#N)c3cc(Cl)ccc3n2C2CCC2)cn1", "note": "[compound 28, 5-(5-chloro-3-cyano-1-cyclobutyl-1H-indol-2-yl)-N-(propan-2-yl)pyridine-2-sulfonamide]", "pIC50": "5.30 to 5.70"}
{"smiles": "N#Cc1c(-c2ccc(S(=O)(=O)NC(CF)CF)cn2)n(C2CCCC2)c2ccc(Cl)cc12", "note": "[compound 72, 6-(5-chloro-3-cyano-1-cyclopentyl-1H-indol-2-yl)-N-(1,3-difluoropropan-2-yl)pyridine-3-sulfonamide]", "pIC50": "> 6.30"}
{"smiles": "N#Cc1c(-c2ccc(S(=O)(=O)NC(CF)CF)cn2)n(CC2CC2)c2ccc(Cl)cc12", "note": "[compound 73, 6-[5-chloro-3-cyano-1-(cyclopropylmethyl)-1H-indol-2-yl]-N-(1,3-difluoropropan-2-yl)pyridine-3-sulfonamide]", "pIC50": "> 6.30"}
{"smiles": "N#Cc1c(-c2ccc(S(=O)(=O)NC(CF)CF)cn2)n(C2CCCCC2)c2ccc(Cl)cc12", "note": "[compound 79, 6-(5-chloro-3-cyano-1-cyclohexyl-1H-indol-2-yl)-N-(1,3-difluoropropan-2-yl)pyridine-3-sulfonamide]", "pIC50": "> 6.30"}
{"smiles": "Cc1ccc2c(C#N)c(-c3ccc(S(=O)(=O)NC(CF)CF)cn3)n(C3CCC3)c2c1", "note": "[compound 82, 6-(3-cyano-1-cyclobutyl-6-methyl-1H-indol-2-yl)-N-(1,3-difluoropropan-2-yl)pyridine-3-sulfonamide]", "pIC50": "> 6.30"}
{"smiles": "N#Cc1c(-c2ccc(S(=O)(=O)NC(CF)CF)cn2)n(CC2CC2)c2cc(C3CC3)ccc12", "note": "[compound 84, 6-[3-cyano-6-cyclopropyl-1-(cyclopropylmethyl)-1H-indol-2-yl]-N-(1,3-difluoropropan-2-yl)pyridine-3-sulfonamide]", "pIC50": "> 6.30"}
{"smiles": "N#Cc1c(-c2ccc(S(=O)(=O)NC(CF)CF)cn2)n(C2CCCC2)c2c(Cl)cccc12", "note": "[compound 88, 6-(7-chloro-3-cyano-1-cyclopentyl-1H-indol-2-yl)-N-(1,3-difluoropropan-2-yl)pyridine-3-sulfonamide]", "pIC50": "> 6.30"}
{"smiles": "N#Cc1c(-c2ccc(S(N)(=O)=O)cn2)n(C2CCC2)c2cc(C3CC3)ccc12", "note": "[compound 90, 6-(3-cyano-1-cyclobutyl-6-cyclopropyl-1H-indol-2-yl)pyridine-3-sulfonamide]", "pIC50": "5.30 to 5.70"}
{"smiles": "N#Cc1c(-c2ccc(S(=O)(=O)NC(CF)CF)cn2)n(C2CCC2)c2cc(C=C(F)F)ccc12", "note": "[compound 103, 6-[3-cyano-1-cyclobutyl-6-(2,2-difluoroethenyl)-1H-indol-2-yl]-N-(1,3-difluoropropan-2-yl)pyridine-3-sulfonamide]", "pIC50": "> 6.30"}
{"smiles": "CC(C)NS(=O)(=O)c1ccc(-c2c(C#N)c3ccc(C4CC4)cc3n2C2CC2)nc1", "note": "[compound 109, 6-(3-cyano-1,6-dicyclopropyl-1H-indol-2-yl)-N-(propan-2-yl)pyridine-3-sulfonamide]", "pIC50": "> 6.30"}
{"smiles": "C[C@H](NS(=O)(=O)c1ccc(-c2c(C#N)c3cc(Cl)ccc3n2C2CCCC2)nc1)C1CC1", "note": "[compound 118, 6-(5-chloro-3-cyano-1-cyclopentyl-1H-indol-2-yl)-N-[(1S)-1-cyclopropylethyl]pyridine-3-sulfonamide]", "pIC50": "> 6.30"}
{"smiles": "N#Cc1c(-c2ncc(S(=O)(=O)NC(CF)CF)cn2)n(C2CCC2)c2cc(C3CC3)c(F)cc12", "note": "[compound 145, 2-(3-cyano-1-cyclobutyl-6-cyclopropyl-5-fluoro-1H-indol-2-yl)-N-(1,3-difluoropropan-2-yl)pyrimidine-5-sulfonamide]", "pIC50": "> 6.30"}
{"smiles": "C[C@H](NS(=O)(=O)c1ccc(-c2c(C#N)c3ccc(OC(F)(F)F)cc3n2C2CCC2)nc1)C1CC1", "note": "[compound 152, 6-[3-cyano-1-cyclobutyl-6-(trifluoromethoxy)-1H-indol-2-yl]-N-[(1S)-1-cyclopropylethyl]pyridine-3-sulfonamide]", "pIC50": "> 6.30"}
{"smiles": "C[C@H](NS(=O)(=O)c1ccc(-c2c(C#N)c3ccc(Cl)cc3n2C2CCC2)nc1)C1CC1", "note": "[compound 154, 6-(6-chloro-3-cyano-1-cyclobutyl-1H-indol-2-yl)-N-[(1S)-1-cyclopropylethyl]pyridine-3-sulfonamide]", "pIC50": "> 6.30"}
{"smiles": "C[C@H](NS(=O)(=O)c1ccc(-c2c(C#N)c3ccc(Cl)cc3n2C2CCCC2)nc1)C1CC1", "note": "[compound 155, 6-(6-chloro-3-cyano-1-cyclopentyl-1H-indol-2-yl)-N-[(1S)-1-cyclopropylethyl]pyridine-3-sulfonamide]", "pIC50": "> 6.30"}
{"smiles": "CC(C)NS(=O)(=O)c1cnc(-c2c(C#N)c3ccc(Cl)cc3n2C(C)C)nc1", "note": "[compound 156, 2-[6-chloro-3-cyano-1-(propan-2-yl)-1H-indol-2-yl]-N-(propan-2-yl)pyrimidine-5-sulfonamide]", "pIC50": "5.70 to 6.30"}
{"smiles": "CSc1ccc2c(C#N)c(-c3ccc(S(=O)(=O)NC(CF)CF)cn3)n(C3CCC3)c2c1", "note": "[compound 161, 6-[3-cyano-1-cyclobutyl-6-(methylsulfanyl)-1H-indol-2-yl]-N-(1,3-difluoropropan-2-yl)pyridine-3-sulfonamide]", "pIC50": "> 6.30"}
{"smiles": "CC(C)n1c(-c2ncc(S(=O)(=O)NC(CF)CF)cn2)c(C#N)c2cc(Cl)ccc21", "note": "[compound 187, 2-[5-chloro-3-cyano-1-(propan-2-yl)-1H-indol-2-yl]-N-(1,3-difluoropropan-2-yl)pyrimidine-5-sulfonamide]", "pIC50": "> 6.30"}
{"smiles": "N#Cc1c(-c2ncc(S(=O)(=O)NC(CF)CF)cn2)n(C2CCCC2)c2ccc(Cl)cc12", "note": "[compound 188, 2-(5-chloro-3-cyano-1-cyclopentyl-1H-indol-2-yl)-N-(1,3-difluoropropan-2-yl)pyrimidine-5-sulfonamide]", "pIC50": "> 6.30"}
{"smiles": "CC(C)NS(=O)(=O)c1cnc(-c2c(C#N)c3ccc(Cl)cc3n2C2CCCC2)nc1", "note": "[compound 189, 2-(6-chloro-3-cyano-1-cyclopentyl-1H-indol-2-yl)-N-(propan-2-yl)pyrimidine-5-sulfonamide]", "pIC50": "> 6.30"}
{"smiles": "Cc1ccc2c(C#N)c(-c3ncc(S(=O)(=O)N[C@@H](C)C4CC4)cn3)n(C3CCC3)c2c1", "note": "[compound 202, 2-(3-cyano-1-cyclobutyl-6-methyl-1H-indol-2-yl)-N-[(1S)-1-cyclopropylethyl]pyrimidine-5-sulfonamide]", "pIC50": "> 6.30"}
{"smiles": "C[C@@H](NS(=O)(=O)c1ccc(-c2c(C#N)c3ccc(Cl)cc3n2C2CCCC2)nc1)C(F)(F)F", "note": "[compound 223, 6-(6-chloro-3-cyano-1-cyclopentyl-1H-indol-2-yl)-N-[(2R)-1,1,1-trifluoropropan-2-yl]pyridine-3-sulfonamide]", "pIC50": "> 6.30"}
{"smiles": "C[C@@H](NS(=O)(=O)c1ccc(-c2c(C#N)c3cc(Cl)ccc3n2C2CCCC2)nc1)C(F)(F)F", "note": "[compound 224, 6-(5-chloro-3-cyano-1-cyclopentyl-1H-indol-2-yl)-N-[(2R)-1,1,1-trifluoropropan-2-yl]pyridine-3-sulfonamide]", "pIC50": "> 6.30"}
{"smiles": "Cc1ccc2c(C#N)c(-c3ccc(S(=O)(=O)N[C@@H](C)C4CC4)cn3)n(CC3CC3)c2c1", "note": "[compound 237, 6-[3-cyano-1-(cyclopropylmethyl)-6-methyl-1H-indol-2-yl]-N-[(1S)-1-cyclopropylethyl]pyridine-3-sulfonamide]", "pIC50": "> 6.30"}
{"smiles": "N#Cc1c(-c2ccc(S(=O)(=O)NC3CC(F)(F)C3)cn2)n(C2CCC2)c2ccc(Cl)cc12", "note": "[compound 243, 6-(5-chloro-3-cyano-1-cyclobutyl-1H-indol-2-yl)-N-(3,3-difluorocyclobutyl)pyridine-3-sulfonamide]", "pIC50": "5.70 to 6.30"}
{"smiles": "COc1ccc2c(C#N)c(-c3ccc(S(=O)(=O)NC4CC(F)(F)C4)cn3)n(C3CCCC3)c2c1", "note": "[compound 246, 6-(3-cyano-1-cyclopentyl-6-methoxy-1H-indol-2-yl)-N-(3,3-difluorocyclobutyl)pyridine-3-sulfonamide]", "pIC50": "5.70 to 6.30"}
{"smiles": "C[C@@H](NS(=O)(=O)c1ccc(-c2c(C#N)c3ccc(F)cc3n2C2CCCCC2)nc1)C(F)(F)F", "note": "[compound 252, 6-(3-cyano-1-cyclohexyl-6-fluoro-1H-indol-2-yl)-N-[(2R)-1,1,1-trifluoropropan-2-yl]pyridine-3-sulfonamide]", "pIC50": "> 6.30"}
{"smiles": "CC(C)n1c(-c2ncc(S(=O)(=O)NC(CF)CF)cn2)c(C#N)c2ccc(Cl)cc21", "note": "[compound 257, 2-[6-chloro-3-cyano-1-(propan-2-yl)-1H-indol-2-yl]-N-(1,3-difluoropropan-2-yl)pyrimidine-5-sulfonamide]", "pIC50": "5.70 to 6.30"}
{"smiles": "CCS(=O)(=O)Nc1ccc(-c2c(C#N)c3ccc(OCC(F)(F)F)cc3n2CC2CC2)cn1", "note": "[compound 290, N-{5-[3-cyano-1-(cyclopropylmethyl)-6-(2,2,2-trifluoroethoxy)-1H-indol-2-yl]pyridin-2-yl}ethanesulfonamide]", "pIC50": "5.30 to 5.70"}
{"smiles": "CC(C)S(=O)(=O)Nc1ccc(-c2c(C#N)c3ccc(OCC(F)(F)F)cc3n2CC2CC2)cn1", "note": "[compound 291, N-{5-[3-cyano-1-(cyclopropylmethyl)-6-(2,2,2-trifluoroethoxy)-1H-indol-2-yl]pyridin-2-yl}propane-2-sulfonamide]", "pIC50": "5.70 to 6.30"}
{"smiles": "CC(C)NS(=O)(=O)c1cnc(-c2c(C#N)c3ccc(CF)cc3n2C2CCC2)nc1", "note": "[compound 315, 2-[3-cyano-1-cyclobutyl-6-(fluoromethyl)-1H-indol-2-yl]-N-(propan-2-yl)pyrimidine-5-sulfonamide]", "pIC50": "> 6.30"}
{"smiles": "C[C@@H](NS(=O)(=O)c1ccc(-c2c(C#N)c3cc(Cl)ccc3n2C2CCC2)nc1)C(F)(F)F", "note": "[compound 316, 6-(5-chloro-3-cyano-1-cyclobutyl-1H-indol-2-yl)-N-[(2R)-1,1,1-trifluoropropan-2-yl]pyridine-3-sulfonamide]", "pIC50": "> 6.30"}
